Columns and labels:
[1] = tested on: Agrobacterium tumefaciens C58; assay: Bacterial strain response to glufosinate on minimal media; type: cell-based; parameters: key: +++ = Heavy Lawn Growth; ++ = Light lawn growth; + = patchy lawn growth; −− = No Growth; conditions: 48 hrs @ 25 C
Procedure: (§1) Selected cell lines of Escherichia coli and Agrobacterium tumefaciens were inoculated on minimal media containing incrementally increasing concentrations of Glufosinate (BASTA). The cell lines; BL21-Star (DE3), Top10, DH5α, Agrobacterium tumefaciens C58, and Agrobacterium tumefaciens LBA4404s were initially grown up on complex media. The Escherichia coli strains were grown in LB and the Agrobacterium tumefaciens strains were grown in YEP. Five microliters of bacterial culture was inoculated and dispersed evenly onto minimal media plates containing various concentrations of glufosinate. The concentrations consisted of 0 μg/ml, 250 μg/ml, 500 μg/ml, 1000 μg/ml, 2000 μg/ml, and 4000 μg/ml of BASTA. In addition, the bacterial strains were inoculated onto a plate of complex media as a control—Agrobacterium tumefaciens strains were inoculated on YEP agar plates, and Escherichia coli strains were inoculated on LB agar plates. The plates containing the Escherichia coli strains were incubated at 37° C. for 24 hours. The plates containing the Agrobacterium tumefaciens strains were incubate at 25° C. for 48 hours. […] Table 7 illustrates the capability of the various strains to grow on minimal media containing glufosinate.

[2] = tested on: Agrobacterium tumefaciens LBA4404s; assay: as above; type: cell-based; parameters: key: +++ = Heavy Lawn Growth; ++ = Light lawn growth; + = patchy lawn growth; −− = No Growth; conditions: 48 hrs @ 25 C
Procedure: as §1

[3] = tested on: Escherichia coli BL21-Star (DE3) with CsVMV promoter//DSM-2 (3264); assay: Viral promoter driven complementation on glufosinate, plasmid 3264; type: cell-based; conditions: for bacterial growth on minimal media: 48 hrs @37 C; as to bacterial growth on minimal media: key: ++++ = Heavy Lawn Growth; +++ = Lawn Growth; ++ = Lots of Distinct Colonies; + = Scattered Colony Growth
Procedure: (§2) Plasmid constructs in which the DSM-2 (v2) and PAT gene coding sequences were expressed, under either the viral promoters CsVMV or the plant promoter AtUbi10, were assayed for complementation on minimal media containing glufosinate. The plasmids 3778 (Rb7 MARv3//AtUbi10 promoter//DSM-2 (v2)//Atu Orf 1 3′UTR), 3779 (Rb7 MARv3//AtUbi10 promoter//PAT//Atu Orf 1 3′UTR), 3264 (CsVMV promoter//DSM-2//Atu Orf 24 3′UTR), 3037 (CsVMV promoter//PAT//Atu Orf 25/26 3′UTR), and 770 (control plasmid containing CsVMV promoter//GUS v3//Atu Orf 24 3′UTR) were transformed into Escherichia coli BL21-Star (DE3) and grown up in complex media. Five microliters of the cultures were plated on minimal media containing increasing concentrations of Glufosinate and incubated at 37° C. for 48 hours.

[4] = tested on: Escherichia coli BL21-Star (DE3) with CsVMV promoter//PAT (3037); assay: Viral promoter driven complementation on glufosinate, plasmid 3037; type: cell-based; conditions: 48 hrs @37 C; also: key: ++++ = Heavy Lawn Growth; +++ = Lawn Growth; ++ = Lots of Distinct Colonies; + = Scattered Colony Growth
Procedure: as §2

[5] = tested on: Wildtype Arabidopsis; assay: Arabidopsis response to glufosinate applied postemergence; type: in vivo, Arabidopsis thaliana; conditions: for % Injury Ave / individuals with % Injury 20-40% / individuals with % Injury <20% / individuals with % Injury >40%: 2 WAT
Procedure: Seven days after planting (DAP) and again 11 DAP, T1 plants (cotyledon and 2-4-1f stage, respectively) were sprayed with a 0.016% solution of 2,4-D herbicide (456 g ae/L 2,4-D Amine 4, Dow AgroSciences LLC, Indianapolis, Ind.) at a spray volume of 10 ml/tray (703 L/ha) using a DeVilbiss compressed air spray tip to deliver an effective rate of 50 g ae/ha 2,4-D DMA per application. Survivors (plants actively growing) were identified 4-7 days after the final spraying and transplanted individually into 3-inch pots prepared with potting media (Metro Mix 360). Transplanted plants were covered with humidity domes for 3-4 days and placed in a 22° C. growth chamber as before or moved to directly to the greenhouse. Domes were subsequently removed and plants reared in the greenhouse (22±5° C., 50±30% RH, 14 h light:10 dark, minimum 500 μE/m^2s^1 natural+supplemental light) at least 1 day prior to testing for the ability of DSM-2 (v2) to provide glufosinate herbicide resistance.
T1 plants were then randomly assigned to various rates of glufosinate. For Arabidopsis 140 g ai/ha glufosinate is an effective dose to distinguish sensitive plants from ones with meaningful levels of resistance. Elevated rates were also applied to determine relative levels of resistance (280, 560, or 1120 g ai/ha).
All glufosinate herbicide applications were applied by track sprayer in a 187 L/ha spray volume. The commercial Liberty™ formulation (200 g ai/L, Bayer Crop Science, Research Triangle Park, N.C.).
The first Arabidopsis transformations were conducted using DSM-2 (v2) (plant optimized gene). T1 transformants were first selected from the background of untransformed seed using a 2,4-D DMA selection scheme. Over 100,000 T1 seed were screened and 260 2,4-D resistant plants (AAD-12 gene) were identified, equating to a transformation/selection frequency of 0.26% which is slightly higher than the normal range of selection frequency of constructs where AAD-12+2,4-D are used for selection. T1 plants selected above were subsequently transplanted to individual pots and sprayed with various rates of commercial glufosinate herbicide. Table 10 compares the response of DSM-2 (v2) and control genes to impart glufosinate resistance to Arabidopsis T1 transformants. Response is presented in terms of % visual injury 2 WAT. […] Since each T1 is an independent transformation event, one can expect significant variation of individual T1 responses within a given rate. An arithmetic mean and standard deviation is presented for each treatment. Untransformed-wildtype Arabidopsis served as a glufosinate sensitive control. The DSM-2 (v2) gene imparted herbicide resistance to individual T1 Arabidopsis plants. Within a given treatment, the level of plant response varied greatly and can be attributed to the fact each plant represents an independent transformation event. Of important note, at above 140 g ai/ha glufosinate, there were individuals that were unaffected while some were severely affected.

[6] = 140 g ai/ha glufosinate postemergence
[7] = 280 g ai/ha glufosinate postemergence
[8] = 560 g ai/ha glufosinate postemergence
[9] = 1120 g ai/ha glufosinate postemergence

CP(=O)(O)CCC(N)C(=O)O (centres unmarked) [glufosinate]
bacterial growth on minimal media ([1]; 250 μg/ml BASTA): +++
bacterial growth on minimal media ([1]; 500 μg/ml BASTA): +++
bacterial growth on minimal media ([1]; 1000 μg/ml BASTA): +++
bacterial growth on minimal media ([1]; 2000 μg/ml BASTA): ++
bacterial growth on minimal media ([1]; 4000 μg/ml BASTA): −−
bacterial growth on minimal media ([2]; 250 μg/ml BASTA): +++
bacterial growth on minimal media ([2]; 500 μg/ml BASTA): ++
bacterial growth on minimal media ([2]; 1000 μg/ml BASTA): ++
bacterial growth on minimal media ([2]; 2000 μg/ml BASTA): +
bacterial growth on minimal media ([2]; 4000 μg/ml BASTA): −−
bacterial growth on minimal media ([3]; 250 μg/ml BASTA): ++
bacterial growth on minimal media ([3]; 500 μg/ml BASTA): +
concentration in minimal media to which promoter-driven DSM-2 provided resistance ([3]; CsVMV promoter, minimal media): 200 µg/mL
bacterial growth on minimal media ([4]; 250 μg/ml BASTA): ++
bacterial growth on minimal media ([4]; 500 μg/ml BASTA): +
% Injury Ave [5, 6]: 98.0%
individuals with % Injury 20-40% [5, 6]: 0
individuals with % Injury <20% [5, 6]: 0
individuals with % Injury >40% [5, 6]: 10
% Injury Ave [5, 7]: 100.0%
individuals with % Injury 20-40% [5, 7]: 0
individuals with % Injury <20% [5, 7]: 0
individuals with % Injury >40% [5, 7]: 10
% Injury Ave [5, 8]: 100.0%
individuals with % Injury 20-40% [5, 8]: 0
individuals with % Injury <20% [5, 8]: 0
individuals with % Injury >40% [5, 8]: 10
% Injury Ave [5, 9]: 100.0%
individuals with % Injury 20-40% [5, 9]: 0
individuals with % Injury <20% [5, 9]: 0
individuals with % Injury >40% [5, 9]: 10
effective dose to distinguish sensitive plants from ones with meaningful levels of resistance ([5]; Arabidopsis): 140 g ai/ha

Source: US20110195845A1, “Constructs for Expressing Herbicide Tolerance Genes, Related Plants, and Related Trait Combinations” (Dow AgroSciences LLC, priority 2008, published 2011)
